According to paper PMC10634346 (Cancer Research Communications, 2023):

What was measured:
[1] = tested on: MYC mRNA in SU-DHL-10 cells; experiment: In vitro washout, MYC mRNA qPCR, SU-DHL-10; format: cell-based, human; conditions: 4 h treatment then washout, for 16 to 48 hours after treatment
Method: (§1) Evaluation of the pharmacodynamic extent and duration of CDK9 inhibition were performed in vitro using the human DLBCL cell lines SU-DHL-4 and SU-DHL-10, harboring MYC amplification and MYC overexpression with P57T mutation, respectively. Cells were seeded 18 hours prior to treatment for 4 hours with one of three CDK9 inhibitors, enitociclib (0.25 and1 µmol/L), atuveciclib (1 µmol/L) or KB-0742 (1 µmol/L), cells were washed, and incubation continued until 48 hours posttreatment. Samples were collected before treatment (−4), immediately after treatment (0), and at 1, 2, 4, 8, 12, 16, 24, and 48 hours after washout for RNA sequencing (RNA-seq), qPCR, and Western blotting analyses. Total RNA was extracted from blood of patients and cell lines using RNeasy Plus Mini Kit (QIAGEN, #74136) and cDNA prepared with the Maxima First Strand cDNA Synthesis Kit for RT-PCR (Thermo Fisher Scientific, K1642) according to manufacturer's instructions. The integrity of purified total RNA was evaluated using an Agilent 2100 Bioanalyzer system and RNA 6000 Nano Kit (Agilent, #5067-1511). Differential gene expression analysis was performed (Fios Genomics) from RNA-seq data (Discovery Life Sciences). MYC and MCL1 mRNA levels were measured by qPCR in vitro and in vivo, using a Taqman qPCR system (Thermo Fisher Scientific), TaqMan Fast Universal PCR Master Mix (2X) no AmpErase (#4352042) and TaqMan probes for MYC (Hs00153408_m1) and MCL1 (Hs03043899_m1). RNA-seq data were analyzed using DESeq2 ([35]).

[2] = tested on: SU-DHL-4 and SU-DHL-10 cell lines; experiment: RNA-seq differential gene expression in DLBCL cell lines; format: cell-based, human
Method: as §1, with “([35]). RNA-seq data generated from the analysis of two cell lines treated with the three CDK9 inhibitors was analyzed to investigate the differences in gene expression levels between various posttreatment timepoints and the pretreatment samples. Quality control assessment and exploratory data analysis by principal component analysis (PCA) were done on raw counts and on normalized count data. Normalization of RNA-seq count data was done using trimmed mean of M-values normalization and transformed with voom, resulting in log2 counts per million with associated precision weights. […] Significance values (Padj) were adjusted for multiple testing, by controlling the FDR using the Benjamini–Hochberg procedure. […] RNA-seq data generated from blood samples taken from patients before and after their first dose (C1D1) or after multiple doses, before and after their third dose (C1D15) were analyzed and normalized using the same pipeline as cell lines for comparisons.” for “([35]).”

[3] = Fraction unbound (fu) used for patient unbound Cmax; format: in vitro ADME; conditions: human, plasma; patients

COc1cc(F)ccc1-c1cc(Nc2cc(CS(C)(=N)=O)ccn2)ncc1F (stereo not shown) [enitociclib]
inhibition of MYC mRNA levels [1]: approximately 75% | PHF23 fold change ([2]; 250 nmol/L, 4 hours, Padj 1.14 e-12): −12.236 | TP53RK fold change ([2]; 250 nmol/L, 4 hours, Padj 7.76 e-8): −9.992 | BTG1 and PIM3 by RNA-seq (in words) ([2]; 1 µmol/L, 4 hours): statistically significant downregulation | PHF23 and TP53RK by RNA-seq (in words) ([2]; 1 µmol/L, 4 hours): statistically significantly downregulated | MCL1 mRNA by RNA-seq (in words) ([2]; 4 hours treatment, in vitro): downregulation is observed but not statistically significant | MYC mRNA by RNA-seq (in words) ([2]; 4 hours treatment, in vitro): statistically significantly downregulated | ZPF36 by RNA-seq (in words) ([2]; 4 hours treatment, in vitro): significantly downmodulated | MYC extent of downregulation, fold change ([2]; MYC+ DLBCL cell lines, clinically relevant conditions): −17.108 fold change | fraction unbound [3]: 0.0665
